From US20260053811A1, “METHODS OF TREATING HYPERTENSION IN OBESE SUBJECTS” (Mineralys Therapeutics, Inc., priority 2022, published 2026)

Tested on: hypertensive subjects
Test: Seated automated office blood pressure (AOBP) in randomized, placebo-controlled, dose-ranging study
Format: in vivo, human
Details: Part 1, 12.5 mg QD
Procedure: A randomized, double-blinded, placebo-controlled, dose-ranging, multicenter study was conducted to evaluate the effect of orally administered Compound A HBr on blood pressure for the treatment of hypertension in male and female subjects ≥18 years of age.
The study consists of two parts. For enrollment into Part 1 of the study, a subject's value of plasma renin activity (PRA) must be ≤1 ng/mL/h based on morning measurement. If the value of PRA >1 ng/mL/h based on morning measurement, then subjects may be eligible to enter Part 2 of the study.
For Part 1, 163 enrolled subjects ≥18 years of age were randomized into 6 equal treatment groups (1:1:1:1:1:1) to 12.5 mg BID, 25 mg BID, 12.5 mg QD, 50 mg QD, 100 mg QD, or placebo. After a review of interim clinical data, the 2 lowest dose levels (12.5 mg QD and 12.5 mg BID) were stopped for future randomization due to a lack of consistent meaningful reduction of blood pressure, but the patients randomized to that point remained in the study through completion. Thus, after the review of interim clinical data, subjects were randomized into 4 equal treatment groups (1:1:1:1) to 25 mg BID, 50 mg QD, 100 mg QD, or placebo.
For Part 2, 36 enrolled subjects ≥18 years of age were randomized (5:1) to either 100 mg QD Compound A HBr or placebo such that the Compound A HBr treatment group consisted of approximately 30 subjects and the placebo treatment group will consist of approximately 6 subjects.
Subjects orally administered the assigned study drug (Compound A HBr or placebo) according to the assigned dosing regimen for 8 weeks beginning on Study Day 1. All subjects in Part 1 (regardless of dosing group) received BID dosing to preserve the integrity of the blind; active drug is administered as the morning dose for all QD dose groups. Subjects returned to the research facility or were seen by the clinical investigator or approved home health care professional at the end of Study Weeks 1, 2, 3, 4, 5, 6, 7, and 8 (±2 days) for protocol-defined efficacy and safety assessments and procedures, assessment of adverse events (AEs), and confirmation of compliance with study drug usage. Subjects also completed a telephone visit and blood pressure (BP) check at home approximately 3 days post last dose of study drug. Subjects attended up to 14 full clinic visits, including a pre-Screening visit, a Screening/start of Placebo Run-in visit, a second visit during Placebo Run-in, a clinic visit to initiate the ABPM procedure, a Randomization visit, 8 weekly visits during double-blind treatment, and an end-of-study visit scheduled 4 weeks after the last study treatment for final efficacy and safety assessments.
An automated oscillometric sphygmomanometer device was used to measure the subjects' systolic and diastolic blood pressure in office after approximately 5 minutes of rest in the seated position.
The primary endpoint is the change in office-measured (mean of last 2 of 5 unattended measurements using an automated oscillometric sphygmomanometer device after approximately 5 minutes of rest in the seated position) systolic blood pressure (SBP) from baseline to the end of Study Week 8.
Secondary endpoints of this study were: • (a) Change in 24-hour ambulatory blood pressure monitoring (ABPM) parameters (systolic and diastolic) from baseline to the end of Study Week 7. • (b) Change in office-measured SBP from baseline to the end of Study Weeks 1, 2, 3, 4, 5, 6, and 7. • (c) Change in office-measured diastolic blood pressure (DBP) from baseline to the end of Study Weeks 1, 2, 3, 4, 5, 6, 7, and 8. • (d) Proportion of subjects who achieve office-measured BP of ≤130/80 mm Hg by the end of Study Week 8.

CC(=O)N[C@H]1CC[C@H](NC(=O)CN2CCN(c3nncc(-c4ccc(C)cc4)n3)CC2)CC1 [Compound A HBr]
Mean (SD) Automated Office-Measured Systolic Blood Pressure at Wk 8 (Age 65-79 yr): 135.63 (15.23) mmHg | Mean (SD) Change from Baseline at Week 8 in Automated Office-Measured Diastolic Blood Pressure (Age 65-79 yr): −5.06 (7.49) mmHg | Mean (SD) Change from Baseline at Week 8 in Automated Office-Measured Systolic Blood Pressure (Age 65-79 yr): −8.50 (14.04) mmHg | Mean (SD) Automated Office-Measured Diastolic Blood Pressure at Wk 8 (Age <65 yr): 82.63 (20.67) mmHg | Mean (SD) Automated Office-Measured Systolic Blood Pressure at Wk 8 (Age <65 yr): 144.88 (25.16) mmHg | Mean (SD) Change from Baseline at Week 8 in Automated Office-Measured Diastolic Blood Pressure (Age <65 yr): −2.19 (9.98) mmHg | Mean (SD) Change from Baseline at Week 8 in Automated Office-Measured Systolic Blood Pressure (Age <65 yr): −5.75 (22.93) mmHg | Mean (SD) Automated Office-Measured Diastolic Blood Pressure at Wk 8 (Age ≥80 yr): 93.50 (37.48) mmHg | Mean (SD) Automated Office-Measured Systolic Blood Pressure at Wk 8 (Age ≥80 yr): 145.00 (42.43) mmHg | Mean (SD) Change from Baseline at Week 8 in Automated Office-Measured Diastolic Blood Pressure (Age ≥80 yr): 13.00 (37.48) mmHg | Mean (SD) Change from Baseline at Week 8 in Automated Office-Measured Systolic Blood Pressure (Age ≥80 yr): −4.75 (39.95) mmHg | Mean (SD) Automated Office-Measured Diastolic Blood Pressure at Wk 8 (BMI 25−30 kg/m^2): 76.00 (6.22) mmHg | Mean (SD) Change from Baseline at Week 8 in Automated Office-Measured Diastolic Blood Pressure (BMI 25−30 kg/m^2): −4.64 (7.81) mmHg | Mean (SD) Automated Office-Measured Diastolic Blood Pressure at Wk 8 (BMI <25 kg/m^2): 73.00 (NE) mmHg | Mean (SD) Change from Baseline at Week 8 in Automated Office-Measured Diastolic Blood Pressure (BMI <25 kg/m^2): −1.50 (NE) mmHg | Mean (SD) Automated Office-Measured Diastolic Blood Pressure at Wk 8 (BMI >30 kg/m^2): 86.10 (21.92) mmHg | Mean (SD) Change from Baseline at Week 8 in Automated Office-Measured Diastolic Blood Pressure (BMI >30 kg/m^2): 0.20 (16.85) mmHg | Mean (SD) Automated Office-Measured Systolic Blood Pressure at Wk 8 (BMI at baseline 25-30 kg/m^2): 134.14 (18.96) mmHg | Mean (SD) Change from Baseline at Week 8 in Automated Office-Measured Systolic Blood Pressure (BMI at baseline 25-30 kg/m^2): −7.71 (19.07) mmHg | Mean (SD) Automated Office-Measured Systolic Blood Pressure at Wk 8 (BMI at baseline <25 kg/m^2): 137.00 (NE) mmHg | Mean (SD) Change from Baseline at Week 8 in Automated Office-Measured Systolic Blood Pressure (BMI at baseline <25 kg/m^2): −11.50 (NE) mmHg | Mean (SD) Automated Office-Measured Systolic Blood Pressure at Wk 8 (BMI at baseline >30 kg/m^2): 145.80 (24.73) mmHg | Mean (SD) Change from Baseline at Week 8 in Automated Office-Measured Systolic Blood Pressure (BMI at baseline >30 kg/m^2): −5.80 (22.31) mmHg | Mean (SD) Automated Office-Measured Diastolic Blood Pressure at Wk 8 (Race Black or AA): 85.00 (19.41) mmHg | Mean (SD) Automated Office-Measured Systolic Blood Pressure at Wk 8 (Race Black or AA): 147.50 (22.06) mmHg | Mean (SD) Change from Baseline at Week 8 in Automated Office-Measured Diastolic Blood Pressure (Race Black or AA): −0.69 (7.56) mmHg | Mean (SD) Change from Baseline at Week 8 in Automated Office-Measured Systolic Blood Pressure (Race Black or AA): −1.44 (16.04) mmHg | Mean (SD) Automated Office-Measured Diastolic Blood Pressure at Wk 8 (Race Other): 78.60 (15.76) mmHg | Mean (SD) Automated Office-Measured Systolic Blood Pressure at Wk 8 (Race Other): 135.40 (21.55) mmHg | Mean (SD) Change from Baseline at Week 8 in Automated Office-Measured Diastolic Blood Pressure (Race Other): −2.65 (17.00) mmHg | Mean (SD) Change from Baseline at Week 8 in Automated Office-Measured Systolic Blood Pressure (Race Other): −11.20 (22.29) mmHg | Mean (SD) Automated Office-Measured Diastolic Blood Pressure at Wk 8 (Seated SBP Tertile High): 84.22 (23.90) mmHg | Mean (SD) Change from Baseline at Week 8 in Automated Office-Measured Diastolic Blood Pressure (Seated SBP Tertile High): −1.06 (18.28) mmHg | Mean (SD) Automated Office-Measured Diastolic Blood Pressure at Wk 8 (Seated SBP Tertile Low): 78.50 (7.48) mmHg | Mean (SD) Change from Baseline at Week 8 in Automated Office-Measured Diastolic Blood Pressure (Seated SBP Tertile Low): −4.17 (6.69) mmHg | Mean (SD) Automated Office-Measured Diastolic Blood Pressure at Wk 8 (Seated SBP Tertile Middle): 79.00 (5.57) mmHg | Mean (SD) Change from Baseline at Week 8 in Automated Office-Measured Diastolic Blood Pressure (Seated SBP Tertile Middle): 0.83 (5.62) mmHg | Mean (SD) Automated Office-Measured Diastolic Blood Pressure at Wk 8 (Sex Female): 75.11 (8.40) mmHg | Mean (SD) Automated Office-Measured Systolic Blood Pressure at Wk 8 (Sex Female): 136.00 (17.23) mmHg | Mean (SD) Change from Baseline at Week 8 in Automated Office-Measured Diastolic Blood Pressure (Sex Female): −4.83 (8.08) mmHg | Mean (SD) Change from Baseline at Week 8 in Automated Office-Measured Systolic Blood Pressure (Sex Female): −9.22 (10.54) mmHg | Mean (SD) Automated Office-Measured Diastolic Blood Pressure at Wk 8 (Sex Male): 87.78 (21.70) mmHg | Mean (SD) Automated Office-Measured Systolic Blood Pressure at Wk 8 (Sex Male): 145.56 (26.10) mmHg | Mean (SD) Change from Baseline at Week 8 in Automated Office-Measured Diastolic Blood Pressure (Sex Male): 1.28 (17.06) mmHg | Mean (SD) Automated Office-Measured Systolic Blood Pressure at Wk 8 (Systolic Blood Pressure Tertile at Baseline High): 146.33 (26.41) mmHg
